Experimental data from ChEMBL document CHEMBL2074328, “Up-regulation of transporters of the MRP family by drugs and toxins” (Toxicol Lett, 2001).

Assays:
[1] = biological target: Multidrug resistance associated protein (Homo sapiens) (UniProt Q96QA9); test: (§1) TP_TRANSPORTER: RT-PCR in HepG2 cells; type: functional, cell-based
[2] = biological target: T1, ATP-binding cassette sub-family C member 2 (Rattus norvegicus, UniProt Q63120); test: TP_TRANSPORTER: Northern blot from primary hepatocytes; type: functional, cell-based, Hepatocyte
[3] = biological target: T1, ATP-binding cassette sub-family C member 2; test: TP_TRANSPORTER: Western blot, primary hepatocytes; type: functional, cell-based, Hepatocyte
[4] = biological target: T2, ATP-binding cassette sub-family C member 2 (Homo sapiens, UniProt Q92887); test: as §1; type: functional, cell-based
[5] = biological target: ATP-binding cassette sub-family C member 5 (Homo sapiens, UniProt O15440); test: as §1; type: functional, cell-based
[6] = biological target: T2, ATP-binding cassette sub-family C member 2; test: TP_TRANSPORTER: Northern blot from HepG2 cells; type: functional, cell-based
[7] = biological target: T3, Multidrug resistance-associated protein 1 (Homo sapiens, UniProt P33527); test: TP_TRANSPORTER: Northern blot from MCF-7 cells; type: functional, cell-based; details: mcf7
[8] = biological target: T3, Multidrug resistance-associated protein 1; test: TP_TRANSPORTER: Western blot, MCF-7 cells; type: functional, cell-based; details: mcf7

Sequence of ATP-binding cassette sub-family C member 5 (O15440 whole entry): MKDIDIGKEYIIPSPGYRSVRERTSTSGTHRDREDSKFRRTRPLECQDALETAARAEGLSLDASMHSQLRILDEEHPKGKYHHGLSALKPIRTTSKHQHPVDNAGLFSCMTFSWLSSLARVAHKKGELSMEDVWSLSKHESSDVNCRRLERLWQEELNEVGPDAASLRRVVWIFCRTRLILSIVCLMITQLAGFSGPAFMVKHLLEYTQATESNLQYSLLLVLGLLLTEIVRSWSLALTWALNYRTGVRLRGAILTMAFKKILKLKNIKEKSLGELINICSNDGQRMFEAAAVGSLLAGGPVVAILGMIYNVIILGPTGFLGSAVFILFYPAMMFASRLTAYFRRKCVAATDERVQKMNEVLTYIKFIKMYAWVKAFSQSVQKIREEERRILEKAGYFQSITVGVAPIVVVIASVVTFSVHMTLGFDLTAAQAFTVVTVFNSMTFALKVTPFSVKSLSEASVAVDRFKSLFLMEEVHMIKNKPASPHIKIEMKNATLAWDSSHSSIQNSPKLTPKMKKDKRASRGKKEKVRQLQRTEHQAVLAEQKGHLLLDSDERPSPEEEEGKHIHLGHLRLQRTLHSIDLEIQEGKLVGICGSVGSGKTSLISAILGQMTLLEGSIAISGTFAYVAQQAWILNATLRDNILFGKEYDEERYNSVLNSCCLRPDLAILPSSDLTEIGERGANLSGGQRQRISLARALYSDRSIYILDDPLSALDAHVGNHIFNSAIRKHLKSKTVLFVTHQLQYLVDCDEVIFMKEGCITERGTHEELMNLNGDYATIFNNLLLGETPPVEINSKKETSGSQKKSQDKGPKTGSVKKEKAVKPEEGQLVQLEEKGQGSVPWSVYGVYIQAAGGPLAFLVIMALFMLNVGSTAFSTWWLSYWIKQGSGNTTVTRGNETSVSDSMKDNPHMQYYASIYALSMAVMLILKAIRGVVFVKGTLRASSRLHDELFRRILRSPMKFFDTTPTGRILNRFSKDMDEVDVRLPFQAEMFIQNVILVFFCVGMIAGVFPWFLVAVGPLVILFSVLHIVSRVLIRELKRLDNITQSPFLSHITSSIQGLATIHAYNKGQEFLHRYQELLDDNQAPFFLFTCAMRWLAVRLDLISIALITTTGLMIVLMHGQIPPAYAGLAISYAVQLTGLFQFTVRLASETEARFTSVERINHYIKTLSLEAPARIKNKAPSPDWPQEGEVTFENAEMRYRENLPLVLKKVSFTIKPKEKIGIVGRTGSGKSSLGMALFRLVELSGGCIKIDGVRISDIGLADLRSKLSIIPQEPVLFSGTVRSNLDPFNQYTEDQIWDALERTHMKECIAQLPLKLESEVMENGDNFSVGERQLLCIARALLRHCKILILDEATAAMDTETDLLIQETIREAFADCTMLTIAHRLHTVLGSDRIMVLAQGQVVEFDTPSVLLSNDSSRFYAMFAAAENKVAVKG
T1 sequence (Q63120 whole entry): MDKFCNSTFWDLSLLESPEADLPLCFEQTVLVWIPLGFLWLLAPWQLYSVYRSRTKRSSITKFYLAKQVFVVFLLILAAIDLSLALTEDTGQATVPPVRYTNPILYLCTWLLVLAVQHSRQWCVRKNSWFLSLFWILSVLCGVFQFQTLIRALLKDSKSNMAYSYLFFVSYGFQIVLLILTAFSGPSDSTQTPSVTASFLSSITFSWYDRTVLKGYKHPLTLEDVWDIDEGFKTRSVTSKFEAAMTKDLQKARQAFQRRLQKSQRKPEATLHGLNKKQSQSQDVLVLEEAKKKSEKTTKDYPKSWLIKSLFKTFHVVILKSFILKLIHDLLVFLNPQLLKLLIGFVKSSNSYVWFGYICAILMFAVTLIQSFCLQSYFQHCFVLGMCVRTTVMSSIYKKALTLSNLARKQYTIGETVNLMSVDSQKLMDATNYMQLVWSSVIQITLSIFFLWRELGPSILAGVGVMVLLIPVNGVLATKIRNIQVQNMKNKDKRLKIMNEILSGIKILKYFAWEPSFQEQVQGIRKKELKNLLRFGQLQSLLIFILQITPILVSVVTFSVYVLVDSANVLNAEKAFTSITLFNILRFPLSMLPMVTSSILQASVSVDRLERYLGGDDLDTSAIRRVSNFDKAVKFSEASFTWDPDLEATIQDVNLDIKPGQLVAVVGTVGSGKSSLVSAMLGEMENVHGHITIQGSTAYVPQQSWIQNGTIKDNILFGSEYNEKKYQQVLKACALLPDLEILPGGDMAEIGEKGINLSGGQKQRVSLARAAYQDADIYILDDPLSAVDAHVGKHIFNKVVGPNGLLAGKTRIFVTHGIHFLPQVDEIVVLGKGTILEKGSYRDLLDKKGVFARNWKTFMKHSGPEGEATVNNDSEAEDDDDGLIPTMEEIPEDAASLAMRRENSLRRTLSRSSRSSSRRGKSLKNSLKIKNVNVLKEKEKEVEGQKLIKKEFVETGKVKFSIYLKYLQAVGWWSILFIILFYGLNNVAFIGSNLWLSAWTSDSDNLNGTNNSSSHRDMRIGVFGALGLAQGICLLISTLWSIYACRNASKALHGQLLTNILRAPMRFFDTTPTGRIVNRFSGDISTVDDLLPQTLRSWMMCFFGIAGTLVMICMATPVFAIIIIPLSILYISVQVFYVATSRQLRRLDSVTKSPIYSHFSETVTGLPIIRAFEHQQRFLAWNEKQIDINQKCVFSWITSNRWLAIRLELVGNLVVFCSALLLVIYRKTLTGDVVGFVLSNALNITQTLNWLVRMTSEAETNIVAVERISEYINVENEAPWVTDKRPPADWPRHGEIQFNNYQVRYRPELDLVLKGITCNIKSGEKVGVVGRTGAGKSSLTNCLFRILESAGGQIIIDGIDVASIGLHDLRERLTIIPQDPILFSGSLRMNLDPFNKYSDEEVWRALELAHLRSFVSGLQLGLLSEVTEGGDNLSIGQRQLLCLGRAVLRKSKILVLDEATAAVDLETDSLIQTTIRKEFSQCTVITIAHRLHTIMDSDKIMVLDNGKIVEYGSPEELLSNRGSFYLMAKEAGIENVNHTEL
T3 sequence (P33527 whole entry): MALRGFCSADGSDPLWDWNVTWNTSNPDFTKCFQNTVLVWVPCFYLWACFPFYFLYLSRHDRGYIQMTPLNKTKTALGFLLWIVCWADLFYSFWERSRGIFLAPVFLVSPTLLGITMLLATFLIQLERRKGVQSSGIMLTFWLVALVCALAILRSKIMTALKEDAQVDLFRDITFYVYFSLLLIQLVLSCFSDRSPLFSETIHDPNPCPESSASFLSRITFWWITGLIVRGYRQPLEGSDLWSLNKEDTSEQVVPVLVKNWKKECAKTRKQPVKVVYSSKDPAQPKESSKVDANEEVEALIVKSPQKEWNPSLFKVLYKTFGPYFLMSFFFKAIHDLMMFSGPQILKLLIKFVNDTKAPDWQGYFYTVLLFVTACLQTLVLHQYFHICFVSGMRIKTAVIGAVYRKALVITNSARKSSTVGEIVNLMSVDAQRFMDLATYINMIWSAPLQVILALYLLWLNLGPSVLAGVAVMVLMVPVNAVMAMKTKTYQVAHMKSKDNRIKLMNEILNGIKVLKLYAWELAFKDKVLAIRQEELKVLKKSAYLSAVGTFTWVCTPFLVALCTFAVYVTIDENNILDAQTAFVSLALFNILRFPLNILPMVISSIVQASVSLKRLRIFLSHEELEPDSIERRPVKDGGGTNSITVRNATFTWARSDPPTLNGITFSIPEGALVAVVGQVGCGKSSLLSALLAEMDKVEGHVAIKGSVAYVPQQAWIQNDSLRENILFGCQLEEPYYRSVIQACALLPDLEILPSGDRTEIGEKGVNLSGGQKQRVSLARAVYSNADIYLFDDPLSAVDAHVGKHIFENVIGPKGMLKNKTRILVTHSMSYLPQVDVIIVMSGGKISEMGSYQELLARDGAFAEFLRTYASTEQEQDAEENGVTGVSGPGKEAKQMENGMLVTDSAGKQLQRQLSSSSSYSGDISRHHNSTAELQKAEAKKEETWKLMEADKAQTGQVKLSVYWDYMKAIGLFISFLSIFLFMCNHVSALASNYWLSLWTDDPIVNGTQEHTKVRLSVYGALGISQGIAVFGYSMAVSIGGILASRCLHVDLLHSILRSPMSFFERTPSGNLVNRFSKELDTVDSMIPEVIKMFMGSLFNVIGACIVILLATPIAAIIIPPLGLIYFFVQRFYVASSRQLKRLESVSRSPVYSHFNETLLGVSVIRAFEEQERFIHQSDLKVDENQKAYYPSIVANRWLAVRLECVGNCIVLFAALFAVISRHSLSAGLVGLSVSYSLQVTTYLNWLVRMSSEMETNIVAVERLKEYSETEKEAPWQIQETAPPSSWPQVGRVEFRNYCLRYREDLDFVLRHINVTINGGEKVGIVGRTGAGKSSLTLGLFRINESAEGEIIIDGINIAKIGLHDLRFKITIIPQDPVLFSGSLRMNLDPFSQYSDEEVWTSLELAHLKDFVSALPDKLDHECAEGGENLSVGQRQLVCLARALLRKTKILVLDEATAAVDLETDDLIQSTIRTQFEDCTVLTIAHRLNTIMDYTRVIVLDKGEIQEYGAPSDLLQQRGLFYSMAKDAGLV

Row | Compound | Activity [2] | Activity [3] | Activity [5] | other results
1 | CISPLATIN [listing 1 of 2 here] |  |  |  | Activity [1]: inducer [+]
2 | CISPLATIN [listing 2 of 2 here] | inducer [+] | inducer [+] | inducer [+] | Activity [4]: inducer [+]
3 | C[C@@H]1C[C@H]2[C@@H]3CCC4=CC(=O)C=C[C@]4(C)[C@@]3(F)[C@@H](O)C[C@]2(C)[C@@]1(O)C(=O)CO [DEXAMETHASONE] | inducer [+] | inducer [+] |  | 
4 | CCC1(c2ccccc2)C(=O)NC(=O)NC1=O [PHENOBARBITAL] |  |  |  | Activity [6]: inducer [+]
5 | CO[C@H]1/C=C/O[C@@]2(C)Oc3c(C)c(O)c4c(O)c(c(/C=N/N5CCN(C)CC5)c(O)c4c3C2=O)NC(=O)/C(C)=C\C=C\[C@H](C)[C@H](O)[C@@H](C)[C@@H](O)[C@@H](C)[C@H](OC(C)=O)[C@@H]1C [RIFAMPIN] |  |  | inducer [+] | 
6 | CC[C@]1(O)C[C@@H]2CN(CCc3c([nH]c4ccccc34)[C@@](C(=O)OC)(c3cc4c(cc3OC)N(C)[C@H]3[C@@](O)(C(=O)OC)[C@H](OC(C)=O)[C@]5(CC)C=CCN6CC[C@]43[C@@H]65)C2)C1 [VINBLASTINE] | inducer [+] | inducer [+] |  | Activity [7]: inducer [+]; Activity [8]: inducer [+]
7 | CC(C)(C)c1cc(O)ccc1O [E319] |  |  |  | Activity [7]: inducer [+]; Activity [8]: inducer [+]
8 | CC(=O)Nc1ccc2c(c1)Cc1ccccc1-2 [2-ACETYLAMINOFLUORENE] | inducer [+] | inducer [+] | inducer [+] | Activity [6]: inducer [+]; Activity [1]: inducer [+]
